In patent publication US12479847B2 (DANA-FARBER CANCER INSTITUTE, INC., priority 2019, dated 2025):

Columns and labels:
Assay in all cases: KINOMEscan (ScanMAX) kinase profiling
Assay type in all cases: binding
panel of 468 kinases [1] = molecular target: T1, panel of 468 kinases (Homo sapiens, UniProt P51956); conditions: NEK3; 1 μM; read-out: % control
T1 construct: purchased KINOMEscan (ScanMAX) service
T1 sequence (P51956 1-506): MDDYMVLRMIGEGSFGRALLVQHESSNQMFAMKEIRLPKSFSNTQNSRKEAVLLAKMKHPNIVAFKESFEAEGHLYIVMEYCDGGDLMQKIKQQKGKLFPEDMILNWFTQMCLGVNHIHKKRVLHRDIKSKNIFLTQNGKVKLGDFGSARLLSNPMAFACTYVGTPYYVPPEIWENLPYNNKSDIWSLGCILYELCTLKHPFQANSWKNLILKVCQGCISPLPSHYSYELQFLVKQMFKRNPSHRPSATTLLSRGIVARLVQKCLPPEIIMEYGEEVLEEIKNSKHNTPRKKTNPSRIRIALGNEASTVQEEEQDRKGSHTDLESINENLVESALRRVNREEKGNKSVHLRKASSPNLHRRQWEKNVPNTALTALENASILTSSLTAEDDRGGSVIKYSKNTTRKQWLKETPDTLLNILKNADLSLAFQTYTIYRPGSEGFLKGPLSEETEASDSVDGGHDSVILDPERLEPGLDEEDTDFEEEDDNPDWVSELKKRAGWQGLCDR

panel of 468 kinases [2] = molecular target: T2, panel of 468 kinases (Homo sapiens, UniProt Q8TDR2); conditions: STK35; 1 μM; read-out: % control
T2 construct: purchased KINOMEscan (ScanMAX) service
T2 sequence (Q8TDR2 whole entry): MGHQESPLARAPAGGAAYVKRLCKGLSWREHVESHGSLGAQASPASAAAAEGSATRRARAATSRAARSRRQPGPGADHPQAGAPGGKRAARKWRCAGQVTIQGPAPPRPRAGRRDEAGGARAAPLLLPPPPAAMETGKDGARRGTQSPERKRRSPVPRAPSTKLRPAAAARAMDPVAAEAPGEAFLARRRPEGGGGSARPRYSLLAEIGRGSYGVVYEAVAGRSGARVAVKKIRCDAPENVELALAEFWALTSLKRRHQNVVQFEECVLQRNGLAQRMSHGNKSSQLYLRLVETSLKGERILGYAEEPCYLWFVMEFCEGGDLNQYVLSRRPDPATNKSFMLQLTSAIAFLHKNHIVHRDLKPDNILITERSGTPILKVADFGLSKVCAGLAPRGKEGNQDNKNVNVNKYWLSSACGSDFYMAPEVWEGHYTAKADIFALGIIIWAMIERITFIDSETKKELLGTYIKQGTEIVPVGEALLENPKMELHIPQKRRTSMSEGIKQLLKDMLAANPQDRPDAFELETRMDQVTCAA

panel of 468 kinases [3] = molecular target: T3, panel of 468 kinases (Homo sapiens, UniProt P07949, M918T); conditions: RET(M918T); 1 μM; read-out: % control
T3 construct: purchased KINOMEscan (ScanMAX) service
T3 sequence (P07949 29-1114 M918T): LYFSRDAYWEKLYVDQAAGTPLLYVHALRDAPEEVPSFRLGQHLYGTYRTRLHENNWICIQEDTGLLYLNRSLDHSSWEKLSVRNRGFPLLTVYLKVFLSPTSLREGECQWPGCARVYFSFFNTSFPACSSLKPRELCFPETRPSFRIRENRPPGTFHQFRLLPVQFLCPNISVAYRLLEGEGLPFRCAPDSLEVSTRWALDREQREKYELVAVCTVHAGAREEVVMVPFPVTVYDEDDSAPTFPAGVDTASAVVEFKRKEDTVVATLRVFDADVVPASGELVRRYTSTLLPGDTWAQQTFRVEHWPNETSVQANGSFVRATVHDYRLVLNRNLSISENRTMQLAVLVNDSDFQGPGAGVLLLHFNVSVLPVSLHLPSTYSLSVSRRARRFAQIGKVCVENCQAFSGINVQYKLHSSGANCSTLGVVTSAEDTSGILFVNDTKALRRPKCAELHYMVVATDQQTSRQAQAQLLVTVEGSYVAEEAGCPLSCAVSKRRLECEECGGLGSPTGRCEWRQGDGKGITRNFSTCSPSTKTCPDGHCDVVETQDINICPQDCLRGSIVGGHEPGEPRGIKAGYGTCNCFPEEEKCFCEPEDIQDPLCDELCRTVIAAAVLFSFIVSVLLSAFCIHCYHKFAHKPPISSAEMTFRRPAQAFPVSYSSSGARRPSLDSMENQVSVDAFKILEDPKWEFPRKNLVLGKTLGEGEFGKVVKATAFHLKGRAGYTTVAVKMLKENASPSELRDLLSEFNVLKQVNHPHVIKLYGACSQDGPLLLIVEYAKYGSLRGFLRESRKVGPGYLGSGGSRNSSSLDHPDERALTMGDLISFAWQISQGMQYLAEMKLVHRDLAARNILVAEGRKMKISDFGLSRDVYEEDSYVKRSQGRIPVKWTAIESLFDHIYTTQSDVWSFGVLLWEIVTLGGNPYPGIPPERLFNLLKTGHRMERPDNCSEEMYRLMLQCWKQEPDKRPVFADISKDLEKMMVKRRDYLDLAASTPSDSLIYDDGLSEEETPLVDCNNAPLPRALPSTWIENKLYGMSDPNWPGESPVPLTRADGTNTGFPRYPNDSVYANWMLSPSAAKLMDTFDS

panel of 468 kinases [4] = molecular target: T4, panel of 468 kinases (Homo sapiens, UniProt P07949, V804L); conditions: RET(V804L); 1 μM; read-out: % control
T4 construct: purchased KINOMEscan (ScanMAX) service
T4 sequence (P07949 29-1114 V804L): as the sequence (P07949 29-1114 M918T) above, with V776L, T890M counted along it

panel of 468 kinases [5] = molecular target: T5, panel of 468 kinases (Homo sapiens, UniProt P49674); conditions: CSNK1E; 1 μM; read-out: % control
T5 construct: purchased KINOMEscan (ScanMAX) service
T5 sequence (P49674 whole entry): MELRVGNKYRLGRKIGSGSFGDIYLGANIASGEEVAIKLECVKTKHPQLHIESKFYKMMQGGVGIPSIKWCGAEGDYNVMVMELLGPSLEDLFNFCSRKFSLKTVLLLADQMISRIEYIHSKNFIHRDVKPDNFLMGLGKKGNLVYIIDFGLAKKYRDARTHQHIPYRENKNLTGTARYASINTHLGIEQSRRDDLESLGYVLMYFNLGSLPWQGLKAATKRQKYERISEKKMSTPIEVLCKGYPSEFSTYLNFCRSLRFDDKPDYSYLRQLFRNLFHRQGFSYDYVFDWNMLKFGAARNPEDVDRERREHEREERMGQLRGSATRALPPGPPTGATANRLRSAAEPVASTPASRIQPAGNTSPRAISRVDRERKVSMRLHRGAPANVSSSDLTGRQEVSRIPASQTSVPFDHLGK

panel of 468 kinases [6] = molecular target: T6, panel of 468 kinases (Homo sapiens, UniProt O14976); conditions: GAK; 1 μM; read-out: % control
T6 construct: purchased KINOMEscan (ScanMAX) service
T6 sequence (O14976 1-1311): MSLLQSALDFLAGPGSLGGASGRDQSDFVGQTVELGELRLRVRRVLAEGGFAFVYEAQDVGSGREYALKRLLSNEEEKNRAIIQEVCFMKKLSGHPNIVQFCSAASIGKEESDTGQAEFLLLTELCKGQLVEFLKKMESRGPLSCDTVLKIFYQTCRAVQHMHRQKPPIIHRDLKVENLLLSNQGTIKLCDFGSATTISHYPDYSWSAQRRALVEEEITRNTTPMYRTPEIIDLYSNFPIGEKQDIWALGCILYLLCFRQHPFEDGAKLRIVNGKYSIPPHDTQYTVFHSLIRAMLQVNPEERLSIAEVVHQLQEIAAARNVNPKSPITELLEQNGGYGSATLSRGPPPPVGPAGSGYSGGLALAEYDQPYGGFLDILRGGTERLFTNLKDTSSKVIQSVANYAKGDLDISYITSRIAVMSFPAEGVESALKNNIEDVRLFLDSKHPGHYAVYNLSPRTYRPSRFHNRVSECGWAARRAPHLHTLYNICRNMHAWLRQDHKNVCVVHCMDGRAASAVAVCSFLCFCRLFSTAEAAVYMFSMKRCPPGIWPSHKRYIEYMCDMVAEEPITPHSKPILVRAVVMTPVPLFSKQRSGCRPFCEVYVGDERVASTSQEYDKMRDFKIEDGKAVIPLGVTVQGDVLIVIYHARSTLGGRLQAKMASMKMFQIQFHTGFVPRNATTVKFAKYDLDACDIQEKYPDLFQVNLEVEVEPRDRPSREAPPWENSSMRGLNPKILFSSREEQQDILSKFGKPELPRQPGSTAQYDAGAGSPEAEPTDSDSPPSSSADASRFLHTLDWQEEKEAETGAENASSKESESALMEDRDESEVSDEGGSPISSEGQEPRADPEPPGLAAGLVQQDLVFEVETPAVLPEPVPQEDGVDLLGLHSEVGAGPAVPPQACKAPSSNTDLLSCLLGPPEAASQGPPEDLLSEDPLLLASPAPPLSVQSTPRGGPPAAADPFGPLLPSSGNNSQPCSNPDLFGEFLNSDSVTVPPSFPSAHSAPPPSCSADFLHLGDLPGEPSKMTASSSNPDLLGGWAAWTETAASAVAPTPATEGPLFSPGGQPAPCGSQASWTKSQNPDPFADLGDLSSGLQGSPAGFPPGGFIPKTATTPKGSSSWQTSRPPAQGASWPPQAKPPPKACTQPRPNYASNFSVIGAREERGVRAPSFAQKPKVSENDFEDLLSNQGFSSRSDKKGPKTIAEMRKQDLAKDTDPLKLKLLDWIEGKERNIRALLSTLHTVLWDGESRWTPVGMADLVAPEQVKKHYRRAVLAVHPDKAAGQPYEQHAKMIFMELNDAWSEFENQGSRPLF

panel of 468 kinases [7] = molecular target: T7, panel of 468 kinases (Homo sapiens, UniProt Q15375); conditions: EPHA7; 1 μM; read-out: % control
T7 construct: purchased KINOMEscan (ScanMAX) service
T7 sequence (Q15375 28-998): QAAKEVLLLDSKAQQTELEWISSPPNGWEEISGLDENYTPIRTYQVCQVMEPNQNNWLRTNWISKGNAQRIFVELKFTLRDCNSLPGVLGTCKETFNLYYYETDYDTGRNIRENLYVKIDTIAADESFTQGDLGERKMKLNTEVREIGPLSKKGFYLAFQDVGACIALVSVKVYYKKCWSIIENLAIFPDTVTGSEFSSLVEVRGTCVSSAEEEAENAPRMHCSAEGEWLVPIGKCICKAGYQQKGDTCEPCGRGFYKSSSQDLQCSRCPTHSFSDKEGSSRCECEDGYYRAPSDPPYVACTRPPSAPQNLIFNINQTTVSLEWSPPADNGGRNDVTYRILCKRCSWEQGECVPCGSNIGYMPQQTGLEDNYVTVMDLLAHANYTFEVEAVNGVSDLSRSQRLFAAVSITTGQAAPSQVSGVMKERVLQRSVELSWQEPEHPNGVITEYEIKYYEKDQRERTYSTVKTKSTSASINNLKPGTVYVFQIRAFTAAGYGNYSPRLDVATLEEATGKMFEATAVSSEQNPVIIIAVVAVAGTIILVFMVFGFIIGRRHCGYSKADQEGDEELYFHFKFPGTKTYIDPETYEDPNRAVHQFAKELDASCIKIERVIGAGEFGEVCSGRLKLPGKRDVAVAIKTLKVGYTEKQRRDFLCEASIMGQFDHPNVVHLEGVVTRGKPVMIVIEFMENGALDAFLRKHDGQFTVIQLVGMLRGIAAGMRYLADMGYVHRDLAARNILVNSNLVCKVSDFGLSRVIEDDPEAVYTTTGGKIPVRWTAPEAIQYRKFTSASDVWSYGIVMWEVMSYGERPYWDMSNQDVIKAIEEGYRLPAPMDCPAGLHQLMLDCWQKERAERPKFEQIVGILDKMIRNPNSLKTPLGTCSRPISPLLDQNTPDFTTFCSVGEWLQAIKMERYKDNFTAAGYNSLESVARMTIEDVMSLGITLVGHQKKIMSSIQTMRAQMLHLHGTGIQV

panel of 468 kinases [8] = molecular target: T8, panel of 468 kinases (Homo sapiens, UniProt P45985); conditions: MEK4; 1 μM; read-out: % control
T8 construct: purchased KINOMEscan (ScanMAX) service
T8 sequence (P45985 1-399): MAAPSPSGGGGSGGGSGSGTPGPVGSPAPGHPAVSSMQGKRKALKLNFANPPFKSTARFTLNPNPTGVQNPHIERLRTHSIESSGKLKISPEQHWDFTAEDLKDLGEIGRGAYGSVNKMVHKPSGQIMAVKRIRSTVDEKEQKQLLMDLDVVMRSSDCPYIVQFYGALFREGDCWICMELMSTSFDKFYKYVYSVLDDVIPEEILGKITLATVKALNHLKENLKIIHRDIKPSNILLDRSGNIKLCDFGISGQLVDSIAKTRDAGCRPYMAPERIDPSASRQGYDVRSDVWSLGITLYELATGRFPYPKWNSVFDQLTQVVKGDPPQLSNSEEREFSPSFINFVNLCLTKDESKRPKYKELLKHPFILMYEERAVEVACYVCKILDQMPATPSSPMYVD

CNc1nc(Nc2ccc(S(=O)(=O)N3CCC(N4CCOCC4)CC3)cc2OC)nc2[nH]cc(Cl)c12 [Compound 12, 5-chloro-N2-(2-methoxy-4-((4-morpholinopiperidin-1-yl)sulfonyl)phenyl)-N4-methyl-7H-pyrrolo[2,3-d]pyrimidine-2,4-diamine]
remaining binding at 1 µM (panel of 468 kinases [1]): 51%
remaining binding at 1 µM (panel of 468 kinases [2]): 100%
remaining binding at 1 µM (panel of 468 kinases [3]): 100%
remaining binding at 1 µM (panel of 468 kinases [4]): 89%
remaining binding at 1 µM (panel of 468 kinases [5]): 18%
remaining binding at 1 µM (panel of 468 kinases [6]): 3.8%
remaining binding at 1 µM (panel of 468 kinases [7]): 100%
remaining binding at 1 µM (panel of 468 kinases [8]): 26%

CNc1nc(Nc2ccc(C(=O)N3CCC(N4CCOCC4)CC3)c3c2OCO3)nc2[nH]cc(Cl)c12 [Compound 75, (7-((5-chloro-4-(methylamino)-7H-pyrrolo[2,3-d]pyrimidin-2-yl)amino)benzo[d][1,3]dioxol-4-yl)(4-morpholinopiperidin-1-yl)methanone]
remaining binding at 1 µM (panel of 468 kinases [1]): 54%
remaining binding at 1 µM (panel of 468 kinases [2]): 100%
remaining binding at 1 µM (panel of 468 kinases [3]): 90%
remaining binding at 1 µM (panel of 468 kinases [4]): 42%
remaining binding at 1 µM (panel of 468 kinases [5]): 30%
remaining binding at 1 µM (panel of 468 kinases [6]): 0.55%
remaining binding at 1 µM (panel of 468 kinases [7]): 100%
remaining binding at 1 µM (panel of 468 kinases [8]): 0.05%

CNc1nc(Nc2ccc(P3(=O)CCN(C4CCOCC4)CC3)cc2OC)nc2[nH]cc(Cl)c12 [Compound 77, 4-(4-((5-chloro-4-(methylamino)-7H-pyrrolo[2,3-d]pyrimidin-2-yl)amino)-3-methoxyphenyl)-1-(tetrahydro-2H-pyran-4-yl)-1,4-azaphosphinane 4-oxide]
remaining binding at 1 µM (panel of 468 kinases [1]): 52%
remaining binding at 1 µM (panel of 468 kinases [2]): 100%
remaining binding at 1 µM (panel of 468 kinases [3]): 94%
remaining binding at 1 µM (panel of 468 kinases [4]): 100%
remaining binding at 1 µM (panel of 468 kinases [5]): 15%
remaining binding at 1 µM (panel of 468 kinases [6]): 0.9%
remaining binding at 1 µM (panel of 468 kinases [7]): 100%
remaining binding at 1 µM (panel of 468 kinases [8]): 4.7%
